US11661419B2, “Benzimidazole derivative compounds and uses thereof” (Pfizer Inc., priority 2019, dated 2023)

How the values were obtained:
[1] = system: IL-2 in activated CD4+ human T-cells; assay: IL-2 inhibition in supernatants from activated CD4+ human T-cells (cisbio HTRF); assay type: cell-based; conditions: T-cell; geometric mean of count n; CD3/CD28-expanded human CD4+ T cells stimulated with ImmunoCult, 20 to 24 hrs
Protocol: IL-2-Inhibition Activity, IC50 (uM)
IL-2 inhibition activity in supernatants from activated CD4+ human T-cells was determined by measuring the effect of a test compound on the activity using the cisbio HTRF™ technology.
Human CD4+ T cells were activated with CD3/CD28 for 3 days and expanded for an additional 4-6 days (7 to 9 days total). On day 0, frozen CD4+ T cells were thawed, treated with CD3/CD28 Dynabeads, and incubated at 37° C./5% CO2. On day 3, the beads were removed, and the cells were diluted to 5×10^5 cells/cm^2, placed in G-Rex10 flask, and incubated at 37° C./5% CO2. On day 7 to day 9 the cells were removed from the G-Rex flasks, counted and diluted back to 1×10^6 cells/ml in standard tissue culture flask.
The expanded CD4+ T-cells were centrifuged at 300×g for 10 minutes and resuspended to 0.5 million cells per ml (30,000 cells/well). 60 μl of CD4+ T cells were added per well to a 384 well plate containing 0.1 μL of varying concentrations of test compound in DMSO. The plates were incubated for 15 min at 37° C./5% CO2. 20 μl of diluted ImmunoCult™ ([…] Technologies, 1:12.5 in T cell assay media) were added to all wells of the plate (1:50 final assay concentration). The plates were incubated for an additional 20 to 24 hrs at 37° C./5% CO2. The plates were centrifuged at 300×g for 10 minutes. 16 μL of supernatant was removed and combined with 4 μl of IL-2 HTRF Abs. (cisbio kit). Plates were incubated for 3 hours at RT and read with an EnVision plate reader at 665 nm and 615 nm wavelengths.

[2] = biological target: Tropomyosin receptor kinase A (TRKA, NTRK1) (Homo sapiens (Human), UniProt P04629); assay: TRKA (NTRK1) enzyme Z'-LYTE assay; assay type: biochemical; conditions: arithmetic mean of count n; test compound 1 uM, ATP 1 mM
Sequence of Tropomyosin receptor kinase A (TRKA, NTRK1) (P04629 33-796): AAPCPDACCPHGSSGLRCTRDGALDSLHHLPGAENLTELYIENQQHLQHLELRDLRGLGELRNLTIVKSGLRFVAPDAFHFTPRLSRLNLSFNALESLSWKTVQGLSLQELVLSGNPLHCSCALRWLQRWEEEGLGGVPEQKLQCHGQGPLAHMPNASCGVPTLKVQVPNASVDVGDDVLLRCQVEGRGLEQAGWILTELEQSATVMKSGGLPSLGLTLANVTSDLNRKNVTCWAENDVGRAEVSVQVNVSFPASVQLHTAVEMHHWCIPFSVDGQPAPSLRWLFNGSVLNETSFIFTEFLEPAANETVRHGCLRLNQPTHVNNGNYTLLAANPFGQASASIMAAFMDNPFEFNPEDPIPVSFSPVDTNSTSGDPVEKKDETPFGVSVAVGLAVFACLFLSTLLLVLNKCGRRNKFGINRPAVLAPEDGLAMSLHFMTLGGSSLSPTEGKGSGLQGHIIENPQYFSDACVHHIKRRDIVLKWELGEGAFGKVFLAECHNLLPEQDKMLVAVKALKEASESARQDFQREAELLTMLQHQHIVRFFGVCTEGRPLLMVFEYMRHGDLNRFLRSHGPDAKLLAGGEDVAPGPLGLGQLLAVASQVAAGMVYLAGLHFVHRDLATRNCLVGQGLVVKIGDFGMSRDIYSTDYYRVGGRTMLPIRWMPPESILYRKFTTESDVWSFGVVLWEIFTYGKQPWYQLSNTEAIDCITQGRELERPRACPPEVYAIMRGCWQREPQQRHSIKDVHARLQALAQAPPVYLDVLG
Protocol: Tropomyosin Receptor Kinase a (TRKA) Activity, % Inhibition
TRKA, also known as neurotrophic tyrosine kinase receptor type 1 (NTKR1) activity was determined by measuring the effect of a test compound on the activity against the NTRK1 enzyme using the ThermoFisher Z'-LYTE Assay fluorescence-based coupled enzyme format (www.thermofisher.com/selectscreen). […] The resulting effect value for the tested compound was compared to the assay controls to determine the % inhibition (%).

IC50 [1] [nM]	inhibition at 1 µM [2] [%]	SMILES
22	95	Cc1cc2[nH]c(-c3n[nH]c4c3C[C@@H]3C[C@]3(C)C4)nc2cc1N(C)C(=O)[C@H](C)C1CCOCC1 [Example 4, (R)—N-methyl-N-(6-methyl-2-((4aS,5aR)-5a-methyl-1,4,4a,5,5a,6-hexahydrocyclopropa[f]indazol-3-yl)-1H-benzo[d]imidazol-5-yl)-2-(tetrahydro-2H-pyran-4-yl)propanamide]
27		Cc1cc2[nH]c(-c3n[nH]c4c3C[C@@H]3C[C@]3(C)C4)nc2cc1N(C)C(=O)C(C)C1CCOCC1 (stereo partly drawn) [Example 5, N-methyl-N-(6-methyl-2-((4aS,5aR)-5a-methyl-1,4,4a,5,5a,6-hexahydrocyclopropa[f]indazol-3-yl)-1H-benzo[d]imidazol-5-yl)-2-(tetrahydro-2H-pyran-4-yl)propanamide]
13		C[C@@H](C(=O)N(C)c1ccc2[nH]c(-c3n[nH]c4c3C[C@@H]3C[C@]3(C)C4)nc2c1)C1CCOCC1 [Example 7, (R)—N-methyl-N-(2-((4aS,5aR)-5a-methyl-1,4,4a,5,5a,6-hexahydrocyclopropa[f]indazol-3-yl)-1H-benzo[d]imidazol-5-yl)-2-(tetrahydro-2H-pyran-4-yl)propanamide]
26		CC(C(=O)N(C)c1ccc2[nH]c(-c3n[nH]c4c3C[C@@H]3C[C@]3(C)C4)nc2c1)C1CCOCC1 (stereo partly drawn) [Example 8, N-methyl-N-(2-((4aS,5aR)-5a-methyl-1,4,4a,5,5a,6-hexahydrocyclopropa[f]indazol-3-yl)-1H-benzo[d]imidazol-5-yl)-2-(tetrahydro-2H-pyran-4-yl)propanamide]
99		C[C@H](C(=O)N(C)c1ccc2[nH]c(-c3n[nH]c4c3C[C@@H]3C[C@]3(C)C4)nc2c1)C1CCOCC1 [Example 9, (S)—N-methyl-N-(2-((4aS,5aR)-5a-methyl-1,4,4a,5,5a,6-hexahydrocyclopropa[f]indazol-3-yl)-1H-benzo[d]imidazol-5-yl)-2-(tetrahydro-2H-pyran-4-yl)propanamide]
34		CN(C(=O)C(F)(F)C1CCOCC1)c1ccc2[nH]c(-c3n[nH]c4c3C[C@@H]3C[C@]3(C)C4)nc2c1 [Example 11, 2,2-difluoro-N-methyl-N-(2-((4aS,5aR)-5a-methyl-1,4,4a,5,5a,6-hexahydrocyclopropa[f]indazol-3-yl)-1H-benzo[d]imidazol-5-yl)-2-(tetrahydro-2H-pyran-4-yl)acetamide]
45		C[C@@H](C(=O)N(C)c1cc2nc(-c3n[nH]c4c3C[C@@H]3C[C@]3(C)C4)[nH]c2cc1F)N1CCOCC1 [Example 17, (S)—N-(6-fluoro-2-((4aS,5aR)-5a-methyl-1,4,4a,5,5a,6-hexahydrocyclopropa[f]indazol-3-yl)-1H-benzo[d]imidazol-5-yl)-N-methyl-2-morpholinopropanamide]
91		CCc1cc2[nH]c(-c3n[nH]c4c3C[C@@H]3C[C@]3(C)C4)nc2cc1N(C)C(=O)[C@H](C)N1CCOCC1 [Example 18, (S)—N-(6-ethyl-2-((4aS,5aR)-5a-methyl-1,4,4a,5,5a,6-hexahydrocyclopropa[f]indazol-3-yl)-1H-benzo[d]imidazol-5-yl)-N-methyl-2-morpholinopropanamide]
340		C[C@@H](C(=O)N(C)c1cc(F)c2[nH]c(-c3n[nH]c4c3C[C@@H]3C[C@]3(C)C4)nc2c1)N1CCOCC1=O [Example 22, (S)—N-(7-fluoro-2-((4aS,5aR)-5a-methyl-1,4,4a,5,5a,6-hexahydrocyclopropa[f]indazol-3-yl)-1H-benzo[d]imidazol-5-yl)-N-methyl-2-(3-oxomorpholino)propanamide]
304		C[C@H](C(=O)N(C)c1cc(F)c2[nH]c(-c3n[nH]c4c3C[C@@H]3C[C@]3(C)C4)nc2c1)N1CCOCC1=O [Example 23, (R)—N-(7-fluoro-2-((4aS,5aR)-5a-methyl-1,4,4a,5,5a,6-hexahydrocyclopropa[f]indazol-3-yl)-1H-benzo[d]imidazol-5-yl)-N-methyl-2-(3-oxomorpholino)propanamide]
289		Cc1cc2[nH]c(-c3n[nH]c4c3C[C@@H]3C[C@]3(C)C4)nc2cc1N(C)C(=O)CN1CCOC(CO)C1 (stereo partly drawn) [Example 27, 2-(2-(Hydroxymethyl)morpholino)-N-methyl-N-(6-methyl-2-((4aS,5aR)-5a-methyl-1,4,4a,5,5a,6-hexahydrocyclopropa[f]indazol-3-yl)-1H-benzo[d]imidazol-5-yl)acetamide]
305		Cc1cc2[nH]c(-c3n[nH]c4c3C[C@@H]3C[C@]3(C)C4)nc2cc1N(C)C(=O)CN1CCO[C@@H](CO)C1 [Example 28, 2-((R)-2-(Hydroxymethyl)morpholino)-N-methyl-N-(6-methyl-2-((4aS,5aR)-5a-methyl-1,4,4a,5,5a,6-hexahydrocyclopropa[f]indazol-3-yl)-1H-benzo[d]imidazol-5-yl)acetamide]
58		Cc1cc2[nH]c(-c3n[nH]c4c3C[C@@H]3C[C@]3(C)C4)nc2cc1N(C)C(=O)CN1CCOC(C)(C)C1 [Example 29, 2-(2,2-Dimethylmorpholino)-N-methyl-N-(6-methyl-2-((4aS,5aR)-5a-methyl-1,4,4a,5,5a,6-hexahydrocyclopropa[f]indazol-3-yl)-1H-benzo[d]imidazol-5-yl)acetamide]
82		Cc1cc2[nH]c(-c3n[nH]c4c3C[C@@H]3C[C@]3(C)C4)nc2cc1N(C)C(=O)CN1CCO[C@H](C)C1 [Example 30, N-Methyl-N-(6-methyl-2-((4aS,5aR)-5a-methyl-1,4,4a,5,5a,6-hexahydrocyclopropa[f]indazol-3-yl)-1H-benzo[d]imidazol-5-yl)-2-((R)-2-methylmorpholino)acetamide]
68		Cc1cc2[nH]c(-c3n[nH]c4c3C[C@@H]3C[C@]3(C)C4)nc2cc1N(C)C(=O)CN1C[C@H](C)O[C@@H](C)C1 [Example 33, 2-((2S,6S)-2,6-Dimethylmorpholino)-N-methyl-N-(6-methyl-2-((4aS,5aR)-5a-methyl-1,4,4a,5,5a,6-hexahydrocyclopropa[f]indazol-3-yl)-1H-benzo[d]imidazol-5-yl)acetamide]
50		Cc1cc2[nH]c(-c3n[nH]c4c3C[C@@H]3C[C@]3(C)C4)nc2cc1N(C)C(=O)CC1CCOCC1 [Example 35, N-Methyl-N-(6-methyl-2-((4aS,5aR)-5a-methyl-1,4,4a,5,5a,6-hexahydrocyclopropa[f]indazol-3-yl)-1H-benzo[d]imidazol-5-yl)-2-(tetrahydro-2H-pyran-4-yl)acetamide]
96		Cc1cc2[nH]c(-c3n[nH]c4c3C[C@@H]3C[C@]3(C)C4)nc2cc1N(C)C(=O)CN1CCOCC1=O [Example 36, N-Methyl-N-(6-methyl-2-((4aS,5aR)-5a-methyl-1,4,4a,5,5a,6-hexahydrocyclopropa[f]indazol-3-yl)-1H-benzo[d]imidazol-5-yl)-2-(3-oxomorpholino)acetamide]
82		C[C@@H](C(=O)N(C)c1cc(O)c2[nH]c(-c3n[nH]c4c3C[C@@H]3C[C@]3(C)C4)nc2c1)N1CCOCC1 [Example 39, (S)—N-(7-hydroxy-2-((4aS,5aR)-5a-methyl-1,4,4a,5,5a,6-hexahydrocyclopropa[f]indazol-3-yl)-1H-benzo[d]imidazol-5-yl)-N-methyl-2-morpholinopropanamide]
47		Cc1c(N(C)C(=O)[C@H](C)N2CCOCC2)cc2nc(-c3n[nH]c4c3C[C@@H]3C[C@]3(C)C4)[nH]c2c1F [Example 46, (S)—N-(7-fluoro-6-methyl-2-((4aS,5aR)-5a-methyl-1,4,4a,5,5a,6-hexahydrocyclopropa[f]indazol-3-yl)-1H-benzo[d]imidazol-5-yl)-N-methyl-2-morpholinopropanamide]
10		Cc1cc2[nH]c(-c3n[nH]c4c3C[C@@H]3C(F)(F)[C@]3(C)C4)nc2cc1N(C)C(=O)[C@H](C)N1CCOCC1 [Example 53, (S)—N-(2-((4aS,5aR)-5,5-difluoro-5a-methyl-1,4,4a,5,5a,6-hexahydrocyclopropa[f]indazol-3-yl)-5-methyl-1H-benzo[d]imidazol-6-yl)-N-methyl-2-morpholinopropanamide]
4570		CN(C(=O)CC1CCOCC1)c1cc2nc(-c3n[nH]c4c3C[C@@H]3C[C@]3(C)C4)[nH]c2cc1C#N [Example 54, N-(6-cyano-2-((4aS,5aR)-5a-methyl-1,4,4a,5,5a,6-hexahydrocyclopropa[f]indazol-3-yl)-1H-benzo[d]imidazol-5-yl)-N-methyl-2-(tetrahydro-2H-pyran-4-yl)acetamide]
